Test results from patent US10894777B2, “TG2 inhibitor piperazine compounds and uses thereof” (UNIVERSITY OF OTTAWA, priority 2016, dated 2021).

Columns and labels:
[1] = molecular target: T1, TG2 (Homo sapiens, UniProt P21980); assay: Colorimetric transamidase activity assay (AL5 substrate), hTG2; type: biochemical
T1 sequence (P21980 1-687): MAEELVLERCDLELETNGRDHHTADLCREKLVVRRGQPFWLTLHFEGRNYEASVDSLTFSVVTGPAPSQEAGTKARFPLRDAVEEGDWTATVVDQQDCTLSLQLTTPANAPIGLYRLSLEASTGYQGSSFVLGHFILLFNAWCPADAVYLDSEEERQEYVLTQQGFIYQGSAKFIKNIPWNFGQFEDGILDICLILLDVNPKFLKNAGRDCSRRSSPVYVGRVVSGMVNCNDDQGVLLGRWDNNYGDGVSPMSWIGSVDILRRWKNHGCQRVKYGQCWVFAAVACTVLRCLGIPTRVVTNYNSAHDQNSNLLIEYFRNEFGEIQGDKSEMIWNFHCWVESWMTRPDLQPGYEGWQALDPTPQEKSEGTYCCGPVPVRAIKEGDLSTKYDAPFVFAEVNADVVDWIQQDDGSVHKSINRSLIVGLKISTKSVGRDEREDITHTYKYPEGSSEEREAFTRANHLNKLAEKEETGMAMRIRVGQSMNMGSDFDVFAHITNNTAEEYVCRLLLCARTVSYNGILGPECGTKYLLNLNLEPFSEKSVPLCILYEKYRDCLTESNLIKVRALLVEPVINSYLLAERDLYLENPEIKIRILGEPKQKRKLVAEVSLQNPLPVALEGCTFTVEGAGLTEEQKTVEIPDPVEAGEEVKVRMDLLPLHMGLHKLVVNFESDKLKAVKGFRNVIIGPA
Protocol: In Vitro Assays. Colorimetric transamidase activity assay. The activities of hTG1, hTG2 and hTG6 were measured via a colorimetric assay using the chromogenic substrate Cbz-Glu(γ-p-nitrophenyl ester)Gly (AL5). The assay was conducted at 25° C. in 100 mM MOPS buffer (pH 6.5) containing 3.0 mM CaCl2 and 50 μM EDTA. […] A stock solution of AL5 was prepared in DMSO such that the final concentration of this co-solvent was constant at 2.5% v/v. Stock solutions of the inhibitors were made in the buffer system previously described. The reaction was initiated with the addition of 40-60 mU/mL of the respective enzyme (0.10 μM hTG1, 0.25 μM hTG2 or 0.32 μM hTG6). Product formation was monitored at 405 nm in a polystyrene 96-well microplate using a BioTek Synergy 4 plate reader. […] Observed first-order rate constants of inactivation (kobs) were determined from non-linear regression fit to a mono-exponential model (Equation 1) of the observed absorbance of the enzymatic hydrolysis product, p-nitrophenolate (pNP). […] Experiments were done in triplicate and variation between repeats was less than 30%.

[2] = tested on: TG2 fusion protein mCer-TG2-YFP; assay: Fluorescence lifetime imaging (FLIM) of TG2 conformation, HaCaT cells; type: cell-based, human; conditions: 5 μM
Protocol: HaCaT cells were electroporated with mCer-TG2 or […] and then treated with 0 or 5 μM of the indicated inhibitor and fluorescent lifetime was monitored. […] HaCaT cells were preloaded with fluorescein cadaverine, treated with the indicated inhibitor and then challenged with calcium ionophore, washed and assayed for FC incorporation. […] The beads were then washed, boiled in Laemmli buffer and electrophoresed for immunoblot detection of TG2. Cell equivalent quantities of total and bound samples were electrophoresed to facilitate comparison of GTP bound versus total. […] Experiments were performed as described in FIGS. 31 (F) and (G).
Fluorescence lifetime imaging. Fluorescence lifetime images were acquired using FLIM system (Alba 5 from ISS). […] Emission was observed through bandpass filter 480/35 nm (Chroma Technology) and detected by a photomultiplier H7422-40 (Hamamatsu). FLIM data were acquired using time-domain modality (SPC-830 TCSPC module from Becker and Hickl GmbH). […] To account for intensity heterogeneity within single intensity images, two to five consecutive scans were acquired and summed to build FLIM intensity image for lifetime analysis. […] FLIM data were analyzed using VistaVision Suite software (Vista v.213 from ISS). Lifetime images were generated by fitting data using single exponential intensity decay model. Intensity threshold for lifetime analysis was set of at least 3-fold above the intensity of dim cells and fitting procedure was performed for binned pixels at level of 3 (7×7 pixels). Lifetime distribution within image is represented with histogram showing pixel frequency of specific lifetime. The average lifetime values with standard deviations were calculated based on all processed pixels in lifetime image. FRET values were calculated according to the formula ET=1−(τDA/τD), where τD is the lifetime of donor (mCer-TG2) and τDA is the lifetime of donor-acceptor pair (mCer-TG2—YFP).

[3] = tested on: U87 cells; assay: Agarose colony formation assay, U87 cells; type: cell-based, human; conditions: 10 μM, 2 weeks
Protocol: (§1) Agarose colony formation assay. Agarose colony formation assay was conducted as described (Horman, S. R. et al., J. Biomol. Screen 18(10):1298-308, 2013; Zhang, K. et al., Tumour Biol. 35(3):2537-48, 2014) using 6-well plates and 5,000 cells in each well. 10 μM NC9 or DMSO was added to every layer at the start of the experiments. 2 mL liquid MEM containing 10 μM NC9 or DMSO was used to cover the agarose and it was changed 3 times a week. Colony growth was monitored every day and at the end of 10-15 days, the colonies were fixed with 4% paraformaldehyde, stained with 0.005% crystal violet, washed with PBS twice and 40 random pictures were taken from each treatment group. A person blinded for the treatments measured the area of the colonies using ImageJ program and the volumes were calculated from the area data under the assumption that the colonies are perfect spheres. The volumes were used to compare the effect of NC9 on colony growth.

[4] = tested on: T98G cells; assay: Agarose colony formation assay, T98G cells; type: cell-based, human; conditions: 10 μM, 2 weeks
Protocol: as §1

[5] = tested on: HaCaT cells; assay: Matrigel invasion assay, HaCaT cells; type: cell-based, human; conditions: 20 μM, 24 h
[6] = molecular target: T1, TG2; assay: Inhibitor modulation of recombinant TG2 conformation (native gel); type: biochemical; design: made in house; conditions: 500 μM inhibitor 1 h, then 0 or 500 μM GTP
Protocol: Inhibitor modulation of recombinant TG2 conformation. Recombinant TG2 protein was prepared in the Center for Biomolecular Therapeutics by Dr. Eric Toth (University of Maryland School of Medicine). […] In some experiments, inhibitor and GTP were added simultaneously. Laemmli native loading buffer was added, and 6 μg of protein was electrophoresed on a native 4% to 6% acrylamide gel and electrophoresed at 125 V for 45 min at 4° C. using Tris-glycine running buffer (Pinkas, D. M. et al., PLoS Biol 5:e327, 2007; Begg, G. E. et al., Proc. Natl. Acad. Sci. USA 103:19683-8, 2006). The gel was subsequently fixed in 40% methanol/10% acetic acid for 30 min, stained 30 minutes with 0.25% Coomassie R-250, destained overnight with 10% methanol/10% acetic acid and photographed.

[7] = molecular target: T1, TG2; assay: BODIPY FL GTP-γ-S binding assay; conditions: NC9 120 μM, VA4 40 μM, VA5 40 μM; plus 0.5 mM CaCl2; 1 μM GTP-γ-S FL BODIPY
Protocol: BODIPY FL GTP-γ-S binding assay. GTP binding was performed using a similar method as reported previously (McEwen, D. P. et al., Anal. […] TG2 (9 μg) was incubated with BODIPY GTP-γ-S at 25° C. for 10 min in 100 mM MOPS (pH=7.0) and 5 mM MgCl2 followed by addition of H2O, inhibitor alone or inhibitor plus 0.5 mM CaCl2. […] After 45 min incubation, fluorescence was then measured on a microplate reader (ex: 490 nm, em: 520 nm).

Structure (SMILES)	kobs (10^−3 min^−1), TG2 ([1]; Table 9, Kitz and Wilson conditions, inhibitor concentration adjusted for competition with substrate)	fluorescence lifetime / TG2 structure [2]	colony growth, U87 [3]	colony growth, T98G [4]	invasion through matrigel [5]	recombinant TG2 conformation, pre-incubation with inhibitor [6]	GTP binding to TG2 [7]	reduction in the inhibition binding constant ([1]; compared to NC9)	kinact ([1]; Table 8, read-out: kinact (converted))	kinact/KI ([1]; read-out: kinact/KI (10^3M^−1 min^−1), Table 8)
C=CC(=O)NCCCC[C@H](NC(=O)OCc1ccccc1)C(=O)NCCOCCOCCNS(=O)(=O)c1cccc2c(N(C)C)cccc12 [NC9]	390 ± 49 10^−3 min^−1	increased fluorescence lifetime	significantly reduced the growth	significantly reduced the growth	suppressed	shifted TG2 from the closed to extended conformation and that this was not reversed by GTP addition	inhibit GTP binding to TG2 almost completely	–	–	–
C=CC(=O)NCCCC[C@H](NC(=O)OCc1ccccc1)C(=O)N1CCN(S(=O)(=O)c2cccc3c(N(C)C)cccc23)CC1 [VA4, (S)-benzyl(6-acrylamido-1-(4-((5-(dimethylamino)naphthalen-1-yl)sulfonyl)piperazin-1-yl)-1-oxohexan-2-yl)carbamate]	–	increased fluorescence lifetime	inhibited colony growth	inhibited colony growth	suppressed	shifted TG2 from the closed to extended conformation and that this was not reversed by GTP addition	inhibit GTP binding to TG2 almost completely	greater than two-fold reduction	–	–
C=CC(=O)NCCCC[C@H](NC(=O)OCc1ccccc1)C(=O)N1CCN(C(=O)c2cc3ccc(O)cc3oc2=O)CC1 [VA5, (S)-Benzyl(6-acrylamido-1-(4-(7-hydroxy-2-oxo-2H-chromene-3-carbonyl)piperazin-1-yl)-1-oxohexan-2-yl)carbamate]	–	increased fluorescence lifetime	promoted it	did not suppress colony growth	suppressed	shifted TG2 from the closed to extended conformation and that this was not reversed by GTP addition	inhibit GTP binding to TG2 almost completely	–	0.0115 s⁻¹	1040 M⁻¹ s⁻¹
